According to ChEMBL document CHEMBL3351318, “Synthesis of novel 4-nitropyrrole-based semicarbazide and thiosemicarbazide hybrids with antimicrobial and anti-tubercular activity” (Bioorg Med Chem Lett, 2014):
In brackets after ≈: the same amount, converted by molar mass.

Experiments:
Escherichia coli [1] = test: Antimicrobial activity against Escherichia coli ATCC 25922 after 48 hrs by broth dilution technique; format: functional; conditions: ATCC 25922, 48 h
Klebsiella pneumoniae = test: Antimicrobial activity against Klebsiella pneumoniae after 48 hrs by broth dilution technique; format: functional
Staphylococcus aureus [2] = test: Antimicrobial activity against methicillin-sensitive Staphylococcus aureus ATCC 35556 after 48 hrs by broth dilution technique; format: functional; conditions: ATCC 35556, 48 h
Staphylococcus aureus [3] = test: Antimicrobial activity against methicillin-resistant Staphylococcus aureus ATCC 43866 after 48 hrs by broth dilution technique; format: functional; conditions: ATCC 43866, 48 h
Candida albicans [4] = test: Antimicrobial activity against Candida albicans after 48 hrs by agar dilution method; format: functional
[5] = test system: Mycobacterium tuberculosis; test: Antitubercular activity against Mycobacterium tuberculosis H37Rv after 7 days by Resazurin micro titer assay; format: functional; conditions: 168 h
Vero = test: Cytotoxicity against African green monkey Vero cells assessed as reduction in cell viability after 72 hrs by MTT assay; format: cell-based; conditions: Chlorocebus sabaeus
Escherichia coli [6] = test: Ratio of ciprofloxacin MIC to compound MIC for Escherichia coli ATCC 25922 after 48 hrs by broth dilution technique; format: functional
Candida albicans [7] = test: Ratio of Amphotericin B MIC to compound MIC for Candida albicans after 48 hrs by broth dilution technique; format: functional
Staphylococcus aureus [8] = test: Ratio of ciprofloxacin MIC to compound MIC for methicillin-sensitive Staphylococcus aureus ATCC 35556 after 48 hrs by broth dilution technique; format: functional
Staphylococcus aureus [9] = test: Ratio of ciprofloxacin MIC to compound MIC for methicillin-resistant Staphylococcus aureus ATCC 43866 after 48 hrs by broth dilution technique; format: functional

Row | SMILES | MIC (Escherichia coli [1]) [µg/mL] | MIC (Klebsiella pneumoniae) [µg/mL] | MIC (Staphylococcus aureus [2]) [µg/mL] | MIC (Staphylococcus aureus [3]) [µg/mL] | MIC (Candida albicans [4]) [µg/mL] | MIC [5] [µg/mL] | IC50 (Vero) [µM] | Ratio (Escherichia coli [6]) | Ratio (Candida albicans [7]) | Ratio (Staphylococcus aureus [8]) | Ratio (Staphylococcus aureus [9])
1 | Cn1cc([N+](=O)[O-])cc1C(=O)NNC(=S)Nc1ccc([N+](=O)[O-])cc1 | 0.39 (≈ 1.07 µM) | 1.56 (≈ 4.28 µM) | 0.195 (≈ 0.535 µM) | 0.39 (≈ 1.07 µM) | 0.78 (≈ 2.14 µM) | 53.8 (≈ 148 µM) | 395 | 4 | 4 | 8 | 8
2 | COc1cc(NC(=S)NNC(=O)c2cc([N+](=O)[O-])cn2C)cc(OC)c1OC | 0.39 (≈ 0.953 µM) | 1.56 (≈ 3.81 µM) | 0.78 (≈ 1.91 µM) | 1.56 (≈ 3.81 µM) | 0.78 (≈ 1.91 µM) | 21.5 (≈ 52.5 µM) | 392 | 4 | 4 | – | –
3 | Cn1cc([N+](=O)[O-])cc1C(=O)NNC(=S)Nc1ccc(Cl)cc1 | 0.39 (≈ 1.1 µM) | 1.56 (≈ 4.41 µM) | 0.195 (≈ 0.551 µM) | 0.39 (≈ 1.1 µM) | 0.78 (≈ 2.2 µM) | 16.3 (≈ 46.1 µM) | 210 | 4 | 4 | 8 | 8
4 | Cn1cc([N+](=O)[O-])cc1C(=O)NNC(=S)NCc1ccccc1 | 1.56 (≈ 4.68 µM) | 3.12 (≈ 9.37 µM) | 0.78 (≈ 2.34 µM) | 1.56 (≈ 4.68 µM) | 1.56 (≈ 4.68 µM) | 31.9 (≈ 95.7 µM) | 239 | – | 2 | – | 4
5 | Cn1cc([N+](=O)[O-])cc1C(=O)NNC(=S)NC1CCCCC1 | 0.39 (≈ 1.2 µM) | 1.56 (≈ 4.79 µM) | 0.39 (≈ 1.2 µM) | 0.78 (≈ 2.4 µM) | 0.78 (≈ 2.4 µM) | 27.5 (≈ 84.5 µM) | 352 | 4 | 4 | 4 | 4
6 | Cn1cc([N+](=O)[O-])cc1C(=O)NNC(=O)Nc1ccc(Br)cc1 | 1.56 (≈ 4.08 µM) | 3.12 (≈ 8.18 µM) | 1.56 (≈ 4.08 µM) | 3.12 (≈ 8.18 µM) | 1.56 (≈ 4.08 µM) | 7.8 (≈ 20.4 µM) | 602 | – | 2 | – | –
7 | Cn1cc([N+](=O)[O-])cc1C(=O)NNC(=S)NCCc1ccccc1 | 0.78 (≈ 2.25 µM) | 3.12 (≈ 9 µM) | 0.39 (≈ 1.12 µM) | 0.78 (≈ 2.25 µM) | 0.78 (≈ 2.25 µM) | 23 (≈ 66.2 µM) | 404 | – | 4 | – | –
8 | O=C(NNC(=S)Nc1ccc(Cl)cc1)c1cc([N+](=O)[O-])c[nH]1 | 1.56 (≈ 4.59 µM) | 3.12 (≈ 9.2 µM) | 1.56 (≈ 4.59 µM) | 3.12 (≈ 9.2 µM) | 3.12 (≈ 9.2 µM) | 1.3 (≈ 3.83 µM) | 191 | – | 4 | – | –
9 | O=C(NNC(=S)NC1CCCCC1)c1cc([N+](=O)[O-])c[nH]1 | 1.56 (≈ 5.01 µM) | 3.12 (≈ 10 µM) | 1.56 (≈ 5.01 µM) | 3.12 (≈ 10 µM) | 3.12 (≈ 10 µM) | 2.8 (≈ 8.99 µM) | 204 | – | 4 | – | –
10 | Cn1cc([N+](=O)[O-])cc1C(=O)NNC(=O)Nc1ccccc1 | 1.56 (≈ 5.14 µM) | 3.12 (≈ 10.3 µM) | 1.56 (≈ 5.14 µM) | 3.12 (≈ 10.3 µM) | 1.56 (≈ 5.14 µM) | 59.2 (≈ 195 µM) | 306 | – | 2 | – | –
11 | COc1ccc(NC(=O)NNC(=O)c2cc([N+](=O)[O-])cn2C)cc1 | 1.56 (≈ 4.68 µM) | 3.12 (≈ 9.38 µM) | 1.56 (≈ 4.68 µM) | 3.12 (≈ 9.38 µM) | 1.56 (≈ 4.68 µM) | 26.1 (≈ 78.3 µM) | 328 | – | 2 | – | –
12 | Cc1ccccc1NC(=S)NNC(=O)c1cc([N+](=O)[O-])c[nH]1 | 1.56 (≈ 4.88 µM) | 3.12 (≈ 9.79 µM) | 1.56 (≈ 4.88 µM) | 3.12 (≈ 9.79 µM) | 3.12 (≈ 9.79 µM) | 0.67 (≈ 2.1 µM) | 462 | – | 4 | – | –
13 | COc1ccc(NC(=S)NNC(=O)c2cc([N+](=O)[O-])c[nH]2)cc1 | 1.56 (≈ 4.65 µM) | 3.12 (≈ 9.32 µM) | 1.56 (≈ 4.65 µM) | 3.12 (≈ 9.32 µM) | 3.12 (≈ 9.32 µM) | 1.3 (≈ 3.88 µM) | 331 | – | 4 | – | –
14 | Cn1cc([N+](=O)[O-])cc1C(=O)NNC(=S)Nc1ccc(F)cc1 | 0.39 (≈ 1.16 µM) | 1.56 (≈ 4.62 µM) | 0.195 (≈ 0.578 µM) | 0.39 (≈ 1.16 µM) | 0.78 (≈ 2.31 µM) | 6.7 (≈ 19.9 µM) | 662 | 4 | 4 | 8 | 8
15 | Cn1cc([N+](=O)[O-])cc1C(=O)NNC(=O)NC1CCCC1 | 1.56 (≈ 5.28 µM) | 3.12 (≈ 10.6 µM) | 1.56 (≈ 5.28 µM) | 3.12 (≈ 10.6 µM) | 1.56 (≈ 5.28 µM) | 38.7 (≈ 131 µM) | 271 | – | 2 | – | –
16 | Cn1cc([N+](=O)[O-])cc1C(=O)NNC(=O)Nc1ccc([N+](=O)[O-])cc1 | 1.56 (≈ 4.48 µM) | 3.12 (≈ 8.97 µM) | 1.56 (≈ 4.48 µM) | 3.12 (≈ 8.97 µM) | 1.56 (≈ 4.48 µM) | 11.9 (≈ 34.2 µM) | 402 | – | 2 | – | –
17 | COc1cc(NC(=S)NNC(=O)c2cc([N+](=O)[O-])c[nH]2)cc(OC)c1OC | 1.56 (≈ 3.95 µM) | 3.12 (≈ 7.9 µM) | 3.12 (≈ 7.9 µM) | 6.25 (≈ 15.8 µM) | 3.12 (≈ 7.9 µM) | 2.7 (≈ 6.83 µM) | 328 | – | 4 | – | –
18 | Cc1ccccc1NC(=S)NNC(=O)c1cc([N+](=O)[O-])cn1C | 0.39 (≈ 1.17 µM) | 1.56 (≈ 4.68 µM) | 0.39 (≈ 1.17 µM) | 0.78 (≈ 2.34 µM) | 0.78 (≈ 2.34 µM) | 11.9 (≈ 35.7 µM) | 471 | 4 | 4 | 4 | –
19 | O=C(NNC(=S)Nc1ccccc1F)c1cc([N+](=O)[O-])c[nH]1 | 1.56 (≈ 4.83 µM) | 3.12 (≈ 9.67 µM) | 1.56 (≈ 4.83 µM) | 3.12 (≈ 9.67 µM) | 3.12 (≈ 9.67 µM) | 0.82 (≈ 2.54 µM) | 471 | – | 4 | – | –
20 | COc1ccc(NC(=S)NNC(=O)c2cc([N+](=O)[O-])cn2C)cc1 | 0.39 (≈ 1.12 µM) | 1.56 (≈ 4.47 µM) | 0.195 (≈ 0.558 µM) | 0.39 (≈ 1.12 µM) | 0.78 (≈ 2.23 µM) | 19.4 (≈ 55.5 µM) | 184 | 4 | 4 | 8 | 8
21 | Cn1cc([N+](=O)[O-])cc1C(=O)NNC(=S)Nc1ccccc1F | 0.39 (≈ 1.16 µM) | 1.56 (≈ 4.62 µM) | 0.39 (≈ 1.16 µM) | 0.78 (≈ 2.31 µM) | 0.78 (≈ 2.31 µM) | 3.2 (≈ 9.49 µM) | 293 | 4 | 4 | 4 | 4
